The values that follow are results of earlier work, collected in US20220395489A1, “THERAPEUTIC APPROACH FOR TREATING INFLAMMATORY BOWEL DISEASE” (THE REGENTS OF THE UNIVERSITY OF CALIFORNIA, priority 2019, published 2022).

Non-standard residues stand in square brackets, D forms with d. Residues, ends and D or L forms follow the SMILES beside them. *: point of attachment. Sta = CC(C)C[C@H](N)[C@@H](O)CC(=O)O; Isovaleryl = CC(C)CC(=O)*

The conditions of data set [1]: low pH values, compared with PMSF.
For data set [2] the following is noted: water.

For the compound `Cl.NCCc1ccc(S(=O)(=O)F)cc1` [AEBSF, 4-(2-aminoethyl)benzenesulfonyl fluoride hydrochloride], the stability entry in data set [1] was “more stable”. Besides, in data set [2], the solubility result is recorded as “water-soluble”.

Turning to `CC(C)CC(=O)N[C@H](C(=O)N[C@H](C(=O)N[C@@H](CC(C)C)[C@@H](O)CC(=O)N[C@@H](C)C(=O)N[C@@H](CC(C)C)[C@@H](O)CC(=O)O)C(C)C)C(C)C` [Pepstatin, Isovaleryl-Val-Val-Sta-Ala-Sta] (Isovaleryl-VV[Sta]A[Sta]-OH), in the data set with pepsin, the “ability to inhibit pepsin” value was “picomolar concentrations”.
